Results: PMC6599039, “Structural and functional analysis of the role of the chaperonin CCT in mTOR complex assembly” (Nature Communications, 2019)

Molecular target: T1, CCT8 in the human mLST8-CCT complex (Homo sapiens, UniProt P50990)
T1 construct: isolated from HEK-293T cells co-expressing His6-myc-PhLP1; no nucleotide added; with T-complex protein 1 subunit alpha; T-complex protein 1 subunit beta; T-complex protein 1 subunit gamma; T-complex protein 1 subunit delta; T-complex protein 1 subunit epsilon; T-complex protein 1 subunit zeta; T-complex protein 1 subunit eta; Target of rapamycin complex subunit LST8
T1 sequence (P50990 2-548): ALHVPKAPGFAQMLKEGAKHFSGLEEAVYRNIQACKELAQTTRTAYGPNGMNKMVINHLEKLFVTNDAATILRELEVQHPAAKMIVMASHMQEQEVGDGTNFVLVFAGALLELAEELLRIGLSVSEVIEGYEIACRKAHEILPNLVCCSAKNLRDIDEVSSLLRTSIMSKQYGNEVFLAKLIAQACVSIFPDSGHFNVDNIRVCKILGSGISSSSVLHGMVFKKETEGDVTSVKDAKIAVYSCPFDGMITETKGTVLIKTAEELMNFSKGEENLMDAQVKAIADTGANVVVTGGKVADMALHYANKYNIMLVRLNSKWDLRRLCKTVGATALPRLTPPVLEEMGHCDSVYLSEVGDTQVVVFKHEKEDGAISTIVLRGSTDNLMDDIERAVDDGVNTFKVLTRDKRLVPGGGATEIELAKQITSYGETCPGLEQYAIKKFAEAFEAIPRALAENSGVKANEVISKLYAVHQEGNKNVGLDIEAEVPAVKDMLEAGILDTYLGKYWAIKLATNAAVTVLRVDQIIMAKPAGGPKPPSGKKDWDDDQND
Test: cryo-EM structure of the complex ([…] A)
Settings: co-purified nucleotide, none added; equatorial nucleotide-binding pocket of both CCT8 subunits

Nc1ncnc2c1ncn2[C@@H]1O[C@H](COP(=O)(O)OP(=O)(O)O)[C@@H](O)[C@H]1O [ADP]
cryo-EM structure of the complex (4.0 A): nucleotide-binding pocket of either of the CCT8 subunits revealed electron density that is clearly attributable to ADP
